Laboratory results taken from the NIST ThermoML archive (doi:10.1021/acs.jced.5b00798).

What was measured:
[1] = xn = mol fraction of the nth substance listed; details: for surface tension liquid-gas: surface light scattering; for kinematic viscosity: 101 kPa, Liquid, Surface laser light scattering (SLLS)
[2] = for surface tension liquid-gas: surface light scattering; for kinematic viscosity: 101.33 kPa, Liquid, Surface laser light scattering (SLLS)

C=C(F)C(F)(F)F [2,3,3,3-tetrafluoro-1-propene] + FCF
[1]
Details	kinematic viscosity [m2/s]	surface tension liquid-gas [mN/m]
293.15 K, x2 = 0.7945	1.28e-07	7.04
293.16 K, x2 = 0.5193	1.31e-07	6.55
293.21 K, x2 = 0.6988	1.28e-07	6.9
303.14 K, x2 = 0.7945	1.18e-07	5.57
303.16 K, x2 = 0.5193	1.2e-07	5.29
303.2 K, x2 = 0.6988	1.19e-07	5.49
313.14 K, x2 = 0.5193	1.09e-07	4.1
313.21 K, x2 = 0.6988	1.09e-07	4.1
313.26 K, x2 = 0.7945	1.08e-07	4.14
323.17 K, x2 = 0.5193	1.01e-07	2.96
323.19 K, x2 = 0.6988	9.91e-08	2.82
323.2 K, x2 = 0.7945	9.82e-08	2.83
333.14 K, x2 = 0.5193	9.15e-08	1.91
333.21 K, x2 = 0.6988	8.98e-08	1.66
333.21 K, x2 = 0.7945	8.85e-08	1.62
343.14 K, x2 = 0.5193	8.18e-08	0.97
343.16 K, x2 = 0.6988	7.93e-08	0.66
343.18 K, x2 = 0.7945	7.71e-08	0.59

FCF [difluoromethane]
[2]
Details	kinematic viscosity [m2/s]	surface tension liquid-gas [mN/m]
293.15 K	1.29e-07	7.4
303.15 K	1.17e-07	5.94
313.07 K	1.08e-07	4.35
323.15 K	9.98e-08	2.96
333.14 K	9.3e-08	1.67
343.16 K	7.95e-08	0.57
348.18 K	7.5e-08	0.14

F/C=C/C(F)(F)F [trans-1,3,3,3-tetrafluoropropene] + FCF
[1]
Details	kinematic viscosity, x2 = 0.2985 [m2/s]	kinematic viscosity, x2 = 0.5697 [m2/s]	kinematic viscosity, x2 = 0.7501 [m2/s]	surface tension liquid-gas, x2 = 0.2985 [mN/m]	surface tension liquid-gas, x2 = 0.5697 [mN/m]	surface tension liquid-gas, x2 = 0.7501 [mN/m]
293.14 K	–	1.47e-07	1.37e-07	–	–	–
293.16 K	1.61e-07	–	–	8.46	8.02	7.74
303.16 K	–	1.34e-07	1.28e-07	–	–	–
303.17 K	1.43e-07	–	–	7.17	6.63	6.3
313.12 K	–	1.22e-07	1.14e-07	–	–	–
313.13 K	1.32e-07	–	–	5.93	5.34	4.91
323.13 K	1.23e-07	–	–	4.75	4.15	3.62
323.14 K	–	1.13e-07	1.04e-07	–	–	–
333.14 K	–	1.03e-07	9.75e-08	–	–	–
333.16 K	1.11e-07	–	–	3.62	2.89	2.41
343.11 K	–	9.31e-08	8.96e-08	–	–	–
343.12 K	1.02e-07	–	–	2.54	1.83	1.32
348.17 K	9.63e-08	–	–	2.06	1.34	0.83
348.19 K	–	8.74e-08	8.58e-08	–	–	–
